Among the test systems are 786-0 renal; BT-549 breast; HS 578T breast; MDA-MB-435; OVCAR-3 ovarian; SK-OV-3 ovarian; SNB-19 CNS.
What all share (assay): NCI-60 cell line screen, 48 h

Several values for one entry are separate records, joined by “and”; a condition that tells them apart may be missing. Equal entries are not always repeated.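 The compound was tested at five concentrations on cells cultured in 96-well plates, with a 48-hour exposure period. GI50: concentration for 50% inhibition of growth. TGI: total growth inhibition.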

Consider `CCOC(=O)c1sc(NC(=O)COc2ccc(/C=C3\CCc4cc(OC)ccc4C3=O)cc2)nc1C`, for which the GI50 in the assay with 786-0 renal was 11.5 µM; in the assay with BT-549 breast, 1.4 µM; in the assay on HS 578T breast it was 13.4 µM; in the assay on MDA-MB-435, 4.05 µM; with OVCAR-3 ovarian, 11 µM; in the assay with SK-OV-3 ovarian, 18.7 µM. For the same compound, the GI50 in the assay on SNB-19 CNS was 12.2 µM. Further, the TGI in the assay with 786-0 renal amounted to 24.7 µM; with BT-549 breast, 17.7 µM; in the assay on HS 578T breast, 42.4 µM; with MDA-MB-435, 18.3 µM; with OVCAR-3 ovarian, 25.8 µM; in the assay with SK-OV-3 ovarian it was 45.3 µM. This compound returned a TGI in the assay on SNB-19 CNS of 25.1 µM.
As for `COc1cc(N)c(Cl)cc1C(=O)N[C@@H]1CCN(CCCOc2ccc(F)cc2)C[C@@H]1OC`, the GI50 is 55.5 µM in the assay on 786-0 renal; 34.9 µM with BT-549 breast; more than 100 µM in the assay on HS 578T breast; more than 100 µM with MDA-MB-435; more than 100 µM in the assay on OVCAR-3 ovarian; more than 100 µM in the assay with SK-OV-3 ovarian. Moreover, the GI50 with SNB-19 CNS was more than 100 µM. For the same compound, the TGI with 786-0 renal, with BT-549 breast, in the assay with HS 578T breast, with MDA-MB-435, with OVCAR-3 ovarian and in the assay on SK-OV-3 ovarian was more than 100 µM in each case. Also, the TGI in the assay with SNB-19 CNS was more than 100 µM.
`COc1ccc(-c2cn3ccnc3c(-c3ccc(Cl)cc3)n2)cc1`: the GI50 is 11.7 µM in the assay on 786-0 renal; 16.5 µM in the assay on BT-549 breast; 3.83 µM in the assay on HS 578T breast; 2.56 µM with MDA-MB-435; 3.19 µM with OVCAR-3 ovarian; 20.7 µM in the assay with SK-OV-3 ovarian. Moreover, in the assay with SNB-19 CNS, the GI50 is 14.4 µM. Also, the TGI with 786-0 renal is more than 100 µM; in the assay on BT-549 breast, more than 100 µM; in the assay on HS 578T breast, 48.2 µM; with MDA-MB-435, 8.62 µM; in the assay with OVCAR-3 ovarian, 71.8 µM; with SK-OV-3 ovarian, more than 100 µM. For the same compound, the TGI in the assay with SNB-19 CNS was more than 100 µM.
As to `CN(C)CCN=c1nc2c(c(N)n1-c1ccccc1)c(=S)n(-c1ccccc1)c(=S)n2-c1ccccc1`, the GI50 with 786-0 renal was 1.33 µM; in the assay with BT-549 breast, 3.21 µM; in the assay with HS 578T breast, 1.98 µM; with MDA-MB-435, 1.75 µM; in the assay on OVCAR-3 ovarian it was 2.89 µM; in the assay with SK-OV-3 ovarian, 6.96 µM. Further, the GI50 in the assay with SNB-19 CNS is 3.86 µM. Also, the TGI amounted to 3.93 µM with 786-0 renal; 13.3 µM in the assay on BT-549 breast; 9.51 µM with HS 578T breast; 3.9 µM in the assay on MDA-MB-435; 11.6 µM with OVCAR-3 ovarian; 20.9 µM in the assay on SK-OV-3 ovarian. This compound also displayed a TGI in the assay on SNB-19 CNS of 16.7 µM.
`COc1ccc2c(CN3CCCC[C@H]3O)cc3cc4c(cc3c2c1)OCO4`: the GI50 was 0.503 µM with 786-0 renal; 1.21 µM with BT-549 breast; 0.663 µM with HS 578T breast; 0.422 µM in the assay with MDA-MB-435; 0.409 µM in the assay with OVCAR-3 ovarian; 0.275 µM with SK-OV-3 ovarian. The GI50 in the assay on SNB-19 CNS was 0.445 µM. Also, the TGI stood at 6.28 µM with 786-0 renal; 4.5 µM with BT-549 breast; 2.94 µM with HS 578T breast; 1.62 µM with MDA-MB-435; 3.4 µM with OVCAR-3 ovarian; 0.961 µM in the assay with SK-OV-3 ovarian. Also, the TGI with SNB-19 CNS worked out at 7.45 µM.
On to `CC(C)(O)c1cc(Nc2cc(Oc3cn(C4CC4)nc3C3CCOCC3)ccn2)ccn1`, for which the GI50 with 786-0 renal was 53.1 µM; in the assay on BT-549 breast, 56.7 µM; in the assay on HS 578T breast it was 73.8 µM; in the assay on MDA-MB-435, more than 100 µM; with OVCAR-3 ovarian it was 98.1 µM; in the assay on SK-OV-3 ovarian it was more than 100 µM. Besides, the GI50 with SNB-19 CNS was more than 100 µM. Further, the TGI in the assay on 786-0 renal, in the assay with BT-549 breast, with HS 578T breast, with MDA-MB-435, in the assay with OVCAR-3 ovarian and with SK-OV-3 ovarian was more than 100 µM throughout. The same compound came in with a TGI in the assay with SNB-19 CNS of more than 100 µM.
`CN(Cc1cnc2nc(N)nc(N)c2n1)c1c(Cl)cc(C(=O)NC(CCC(=O)O)C(=O)O)cc1Cl` (stereo unspecified): the GI50 in the assay with 786-0 renal is less than 0.01 µM; with BT-549 breast, 1.4 µM; with HS 578T breast, 8.12 µM; in the assay on MDA-MB-435 it was less than 0.01 µM; with OVCAR-3 ovarian, 0.0685 µM; with SK-OV-3 ovarian, 0.807 µM. Moreover, the GI50 in the assay with SNB-19 CNS is 0.0395 µM. The TGI in the assay on 786-0 renal, in the assay with BT-549 breast, in the assay with HS 578T breast, with MDA-MB-435, with OVCAR-3 ovarian and with SK-OV-3 ovarian was more than 100 µM each time. The TGI with SNB-19 CNS is more than 100 µM.
For the compound `C[C@]12CCC3c4ccc(O)cc4CCC3C1CC[C@@H]2NC(=O)/C=C/c1ccc(O)c(O)c1` (stereo partly specified), the GI50 in the assay with 786-0 renal was 10.4 µM; in the assay with HS 578T breast, 15.4 µM; in the assay with MDA-MB-435, 13.6 µM; in the assay with OVCAR-3 ovarian, 21.5 µM; in the assay with SK-OV-3 ovarian, 14.8 µM; in the assay on SNB-19 CNS, 13.7 µM. For the same compound, the TGI with 786-0 renal is 29.2 µM; in the assay with HS 578T breast, more than 100 µM; with MDA-MB-435, 39.1 µM; in the assay on OVCAR-3 ovarian, 48.7 µM; with SK-OV-3 ovarian it was 31.6 µM; with SNB-19 CNS, 33.9 µM.
`CCS(=O)(=O)c1cccc(-c2cc(C(=O)NC3CCN(C)CC3)c(C)c3[nH]c4ncc(C)cc4c23)c1`: the GI50 in the assay on 786-0 renal was 1.68 µM and 1.32 µM; in the assay on BT-549 breast, 1.75 µM and 0.875 µM; in the assay with HS 578T breast it was 0.275 µM and 0.109 µM; with MDA-MB-435 it was 0.722 µM and 0.304 µM; in the assay on OVCAR-3 ovarian, 0.336 µM and 0.232 µM; with SK-OV-3 ovarian, 0.624 µM and 0.771 µM. In the assay on SNB-19 CNS, the GI50 is 0.302 µM and 0.25 µM. Moreover, the TGI was > 8.05 µM and 4.7 µM in the assay on 786-0 renal; 5.84 µM and 2.2 µM in the assay with BT-549 breast; 2.6 µM and 0.424 µM with HS 578T breast; > 10 µM and 4.54 µM with MDA-MB-435; 2.48 µM and 1.41 µM with OVCAR-3 ovarian; 4.31 µM and 7.31 µM with SK-OV-3 ovarian. Further, in the assay on SNB-19 CNS, the TGI is > 10 µM and 6.67 µM.
Consider `CSCc1ncc(-c2ccc(C(F)(F)F)cc2)c(NC2CCCCCC2)n1`, for which the GI50 with 786-0 renal, in the assay on BT-549 breast, in the assay with MDA-MB-435, with OVCAR-3 ovarian, in the assay with SK-OV-3 ovarian and in the assay on SNB-19 CNS was more than 10 µM in each case. For the same compound, the TGI in the assay with 786-0 renal, in the assay with BT-549 breast, in the assay on MDA-MB-435, in the assay on OVCAR-3 ovarian, with SK-OV-3 ovarian and with SNB-19 CNS was more than 10 µM in each case.
